Results published in ChEMBL document CHEMBL4665657, “2-Phenyl-8-(1-phenylallyl)-chromenone compounds have a pan-PPAR modulator pharmacophore” (Bioorg Med Chem, 2019).
The source made the active and inactive calls. The calls are words filed in the database; no cut-off is given here.

Legend:
[1] = tested on: BMMSC; assay: Induction of adipogenesis in human BMMSC cells assessed as increase in HMGCR mRNA at 1 uM incubated for 3 days by qRT-PCR analysis; assay type: functional, cell-based; settings: time 3.0 day
[2] = tested on: BMMSC; assay: Induction of adipogenesis in human BMMSC cells assessed as increase in HMGCS2 mRNA at 1 uM incubated for 3 days by qRT-PCR analysis; assay type: functional, cell-based; settings: time 3.0 day
[3] = tested on: BMMSC; assay: Induction of adipogenesis in human BMMSC cells assessed as increase in ANGPTL4 mRNA at 1 uM incubated for 3 days by qRT-PCR analysis; assay type: functional, cell-based; settings: time 3.0 day
[4] = tested on: BMMSC; assay: Induction of adipogenesis in human BMMSC cells assessed as increase in ACOX1 mRNA at 1 uM incubated for 3 days by qRT-PCR analysis; assay type: functional, cell-based; settings: time 3.0 day
[5] = tested on: BMMSC; assay: Induction of adipogenesis in human BMMSC cells assessed as increase in ACACB mRNA at 1 uM incubated for 3 days by qRT-PCR analysis; assay type: functional, cell-based; settings: time 3.0 day
[6] = tested on: BMMSC; assay: Induction of adipogenesis in human BMMSC cells assessed as increase in adiponectin secretion at 10 uM incubated for 5 days by ELISA; assay type: functional, cell-based; settings: time 5.0 day
[7] = tested on: BMMSC; assay: Induction of adipogenesis in human BMMSC cells assessed as increase in ACACB mRNA at 10 uM incubated for 3 days by qRT-PCR analysis; assay type: functional, cell-based; settings: time 3.0 day
[8] = tested on: BMMSC; assay: Induction of adipogenesis in human BMMSC cells assessed as increase in adiponectin mRNA at 10 uM incubated for 3 days by qRT-PCR analysis; assay type: functional, cell-based; settings: time 3.0 day
[9] = molecular target: T1, Bile acid receptor (Homo sapiens) (UniProt Q96RI1); assay: Transactivation of FXR (unknown origin) by TR-FRET assay
T1 sequence (whole entry): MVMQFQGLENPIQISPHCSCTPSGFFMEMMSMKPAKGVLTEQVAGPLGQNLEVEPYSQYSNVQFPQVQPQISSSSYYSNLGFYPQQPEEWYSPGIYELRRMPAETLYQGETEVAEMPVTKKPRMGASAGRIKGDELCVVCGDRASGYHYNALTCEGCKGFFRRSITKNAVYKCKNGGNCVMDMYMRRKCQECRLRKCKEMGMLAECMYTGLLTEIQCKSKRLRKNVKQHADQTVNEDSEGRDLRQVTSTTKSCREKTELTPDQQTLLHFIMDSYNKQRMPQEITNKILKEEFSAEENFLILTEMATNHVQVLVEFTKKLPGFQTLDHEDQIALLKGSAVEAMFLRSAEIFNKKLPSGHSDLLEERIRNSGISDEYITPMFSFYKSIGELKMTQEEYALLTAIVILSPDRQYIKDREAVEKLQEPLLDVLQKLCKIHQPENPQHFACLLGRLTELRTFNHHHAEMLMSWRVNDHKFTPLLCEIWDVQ

[10] = tested on: BMMSC; assay: Induction of adipogenesis in human BMMSC cells assessed as increase in adiponectin secretion at 10 uM in presence of WY14643 incubated for 5 days by ELISA; assay type: functional, cell-based; settings: time 5.0 day
[11] = tested on: BMMSC; assay: Induction of adipogenesis in human BMMSC cells assessed as increase in HMGCS2 mRNA at 10 uM incubated for 3 days by qRT-PCR analysis; assay type: functional, cell-based; settings: time 3.0 day
[12] = tested on: BMMSC; assay: Induction of adipogenesis in human BMMSC cells assessed as increase in adiponectin secretion at 10 uM in presence of pioglitazone incubated for 5 days by ELISA; assay type: functional, cell-based; settings: time 5.0 day
[13] = molecular target: T2, Peroxisome proliferator-activated receptor delta (Homo sapiens, UniProt Q03181); assay: Binding affinity to PPARdelta (unknown origin) by TR-FRET assay
T2 sequence (Q03181 whole entry): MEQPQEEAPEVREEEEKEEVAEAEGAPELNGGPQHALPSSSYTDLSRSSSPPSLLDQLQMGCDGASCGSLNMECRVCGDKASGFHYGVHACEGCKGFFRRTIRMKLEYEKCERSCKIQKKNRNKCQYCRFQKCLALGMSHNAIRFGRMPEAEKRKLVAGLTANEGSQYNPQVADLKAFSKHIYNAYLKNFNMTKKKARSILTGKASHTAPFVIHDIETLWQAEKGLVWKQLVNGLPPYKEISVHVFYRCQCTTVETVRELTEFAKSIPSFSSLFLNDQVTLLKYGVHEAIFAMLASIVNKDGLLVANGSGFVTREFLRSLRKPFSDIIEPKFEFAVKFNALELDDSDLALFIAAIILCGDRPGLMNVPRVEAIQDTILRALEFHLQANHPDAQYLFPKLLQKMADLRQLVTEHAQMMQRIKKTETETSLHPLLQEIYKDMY

[14] = molecular target: T3, Glucocorticoid receptor (Homo sapiens) (UniProt P04150); assay: Binding affinity to glucocorticoid receptor (unknown origin) by TR-FRET assay
T3 sequence (whole entry): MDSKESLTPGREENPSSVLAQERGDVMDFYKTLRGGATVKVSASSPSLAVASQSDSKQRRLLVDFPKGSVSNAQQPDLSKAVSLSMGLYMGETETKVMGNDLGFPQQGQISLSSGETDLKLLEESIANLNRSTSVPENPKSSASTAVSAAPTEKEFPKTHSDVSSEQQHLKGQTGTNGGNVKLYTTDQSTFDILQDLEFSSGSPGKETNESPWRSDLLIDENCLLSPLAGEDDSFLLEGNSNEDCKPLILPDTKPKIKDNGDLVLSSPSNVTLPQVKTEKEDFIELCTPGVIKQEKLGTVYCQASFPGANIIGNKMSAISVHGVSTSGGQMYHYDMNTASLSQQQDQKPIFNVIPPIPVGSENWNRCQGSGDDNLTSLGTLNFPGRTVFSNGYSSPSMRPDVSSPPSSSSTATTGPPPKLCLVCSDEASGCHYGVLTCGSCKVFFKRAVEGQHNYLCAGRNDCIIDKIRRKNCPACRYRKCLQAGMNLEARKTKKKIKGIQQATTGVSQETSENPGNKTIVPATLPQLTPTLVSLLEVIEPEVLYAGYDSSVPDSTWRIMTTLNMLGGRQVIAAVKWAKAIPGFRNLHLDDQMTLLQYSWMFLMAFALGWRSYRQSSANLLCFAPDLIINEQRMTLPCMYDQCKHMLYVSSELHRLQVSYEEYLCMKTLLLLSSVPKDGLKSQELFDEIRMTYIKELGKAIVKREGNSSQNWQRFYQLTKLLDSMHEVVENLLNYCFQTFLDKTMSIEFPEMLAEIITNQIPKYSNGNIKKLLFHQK

[15] = tested on: BMMSC; assay: Induction of adipogenesis in human BMMSC cells assessed as increase in ACOX1 mRNA at 10 uM incubated for 3 days by qRT-PCR analysis; assay type: functional, cell-based; settings: time 3.0 day
[16] = molecular target: T4, Peroxisome proliferator-activated receptor alpha (Homo sapiens, UniProt Q07869); assay: Binding affinity to PPARalpha (unknown origin) by TR-FRET assay
T4 sequence (Q07869 whole entry): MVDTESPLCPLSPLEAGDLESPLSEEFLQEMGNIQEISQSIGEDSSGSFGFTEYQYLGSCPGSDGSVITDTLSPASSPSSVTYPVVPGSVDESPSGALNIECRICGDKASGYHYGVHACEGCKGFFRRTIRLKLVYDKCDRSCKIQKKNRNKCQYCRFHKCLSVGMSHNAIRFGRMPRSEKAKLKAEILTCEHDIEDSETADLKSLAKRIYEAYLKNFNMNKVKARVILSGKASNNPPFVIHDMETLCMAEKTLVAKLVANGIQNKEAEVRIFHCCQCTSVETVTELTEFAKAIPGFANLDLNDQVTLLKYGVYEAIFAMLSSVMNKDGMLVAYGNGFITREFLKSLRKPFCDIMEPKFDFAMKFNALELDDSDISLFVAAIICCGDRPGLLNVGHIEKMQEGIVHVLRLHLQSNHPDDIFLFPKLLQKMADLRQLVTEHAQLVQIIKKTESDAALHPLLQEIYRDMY

[17] = tested on: BMMSC; assay: Induction of adipogenesis in human BMMSC cells assessed as lipid droplet formation at 10 uM incubated for 5 days by oil red O staining based inverted microscopy analysis; assay type: functional, cell-based; settings: time 5.0 day
[18] = molecular target: T5, Oxysterols receptor LXR-beta (Homo sapiens) (UniProt P55055); assay: Transactivation of LXRbeta (unknown origin) by TR-FRET assay
T5 sequence (whole entry): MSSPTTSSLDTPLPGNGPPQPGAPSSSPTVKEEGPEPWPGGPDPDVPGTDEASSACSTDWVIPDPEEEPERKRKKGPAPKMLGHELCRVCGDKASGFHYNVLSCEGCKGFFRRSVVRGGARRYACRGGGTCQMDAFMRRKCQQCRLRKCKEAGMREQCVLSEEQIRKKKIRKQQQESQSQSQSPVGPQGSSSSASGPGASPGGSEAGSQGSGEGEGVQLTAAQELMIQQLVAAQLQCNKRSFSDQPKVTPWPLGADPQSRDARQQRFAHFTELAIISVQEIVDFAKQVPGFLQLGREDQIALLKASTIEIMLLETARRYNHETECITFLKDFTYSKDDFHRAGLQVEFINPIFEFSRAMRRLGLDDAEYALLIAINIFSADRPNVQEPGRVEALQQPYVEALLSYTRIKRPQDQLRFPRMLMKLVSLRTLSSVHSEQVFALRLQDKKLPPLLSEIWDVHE

[19] = tested on: BMMSC; assay: Induction of adipogenesis in human BMMSC cells assessed as increase in adiponectin secretion incubated for 5 days by ELISA; assay type: functional, cell-based; settings: time 5.0 day
[20] = tested on: BMMSC; assay: Induction of adipogenesis in human BMMSC cells assessed as increase in adiponectin secretion at 10 uM in presence of GW501516 incubated for 5 days by ELISA; assay type: functional, cell-based; settings: time 5.0 day
[21] = tested on: BMMSC; assay: Induction of adipogenesis in human BMMSC cells assessed as increase in HMGCR mRNA at 10 uM incubated for 3 days by qRT-PCR analysis; assay type: functional, cell-based; settings: time 3.0 day
[22] = molecular target: T6, Oxysterols receptor LXR-alpha (Homo sapiens) (UniProt Q13133); assay: Transactivation of LXRalpha (unknown origin) by TR-FRET assay
T6 sequence (whole entry): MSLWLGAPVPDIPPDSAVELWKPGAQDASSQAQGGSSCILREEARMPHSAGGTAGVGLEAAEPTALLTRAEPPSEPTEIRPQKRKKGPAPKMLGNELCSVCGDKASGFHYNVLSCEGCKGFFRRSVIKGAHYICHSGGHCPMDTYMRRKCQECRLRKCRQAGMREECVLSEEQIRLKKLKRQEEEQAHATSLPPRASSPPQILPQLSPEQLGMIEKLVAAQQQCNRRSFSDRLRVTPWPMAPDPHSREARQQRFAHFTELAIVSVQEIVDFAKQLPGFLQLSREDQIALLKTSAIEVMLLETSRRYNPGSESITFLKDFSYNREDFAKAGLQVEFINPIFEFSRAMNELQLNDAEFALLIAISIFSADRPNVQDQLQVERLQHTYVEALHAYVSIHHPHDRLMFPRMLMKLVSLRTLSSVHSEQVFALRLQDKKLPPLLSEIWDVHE

[23] = molecular target: T7, Peroxisome proliferator-activated receptor gamma (Homo sapiens, UniProt P37231); assay: Binding affinity to PPARgamma (unknown origin) by TR-FRET assay
T7 sequence (P37231 whole entry): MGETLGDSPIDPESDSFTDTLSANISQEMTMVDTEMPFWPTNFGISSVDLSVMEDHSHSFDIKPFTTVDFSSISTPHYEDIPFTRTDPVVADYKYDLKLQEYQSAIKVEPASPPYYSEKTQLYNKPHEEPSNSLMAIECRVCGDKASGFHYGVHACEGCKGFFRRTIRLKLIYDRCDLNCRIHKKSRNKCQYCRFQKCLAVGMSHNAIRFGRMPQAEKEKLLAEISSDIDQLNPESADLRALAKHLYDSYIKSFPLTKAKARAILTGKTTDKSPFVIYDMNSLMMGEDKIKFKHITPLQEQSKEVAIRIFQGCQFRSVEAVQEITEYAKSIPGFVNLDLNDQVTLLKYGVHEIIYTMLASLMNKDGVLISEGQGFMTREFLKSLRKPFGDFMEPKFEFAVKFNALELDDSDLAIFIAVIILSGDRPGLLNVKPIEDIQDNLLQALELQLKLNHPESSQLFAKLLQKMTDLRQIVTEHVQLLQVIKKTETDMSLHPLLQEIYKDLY

[24] = tested on: BMMSC; assay: Induction of adipogenesis in human BMMSC cells assessed as increase in ANGPTL4 mRNA at 10 uM incubated for 3 days by qRT-PCR analysis; assay type: functional, cell-based; settings: time 3.0 day

## Cc1cc(SCc2sc(-c3ccc(C(F)(F)F)cc3)nc2C)ccc1OCC(=O)O
[1]
  Activity: Active
[2]
  Activity: inactive
[3]
  Activity: Active
[4]
  Activity: inactive
[5]
  Activity: Active

## C=CC(c1ccc(OC)c(OC)c1)c1c(O)cc(O)c2c(=O)cc(-c3ccccc3)oc12 (stereo not given)
[6]
  Activity: Active

## CCc1ccc(CCOc2ccc(CC3SC(=O)NC3=O)cc2)nc1 (stereo not given)
[1]
  Activity: Active
[2]
  Activity: inactive
[3]
  Activity: Active
[4]
  Activity: inactive
[5]
  Activity: Active

## C=CC(c1ccccc1)c1c(O)cc(O)c2c(=O)cc(-c3ccccc3)oc12 (stereo not given)
[7]
  Activity: Active
[8]
  Activity: Active
[9]
  Activity: inactive
[10]
  Activity: Active
[11]
  Activity: Active
[12]
  Activity: Active
[13]
  Ki: 1180 nM
[14]
  Activity: inactive
[15]
  Activity: Active
[16]
  Ki: 960 nM
[17]
  Activity: Active
[18]
  Activity: inactive
[19]
  Activity: Dose-dependent effect
[20]
  Activity: Active
[21]
  Activity: Active
[6]
  Activity: Active
[22]
  Activity: inactive
[23]
  Ki: 1410 nM
[24]
  Activity: Active
